Reference: US7608630B2, “Marasmius androsaceus L.es Fr extract, piperidone derivative, and their use for the preparation of hypertensives” (Hainan Yangpu New Special Pharmaceutical Co., Ltd., priority 2004, dated 2009)
Several values for one entry are separate records, joined by “and”; a condition that tells them apart may be missing. Equal values may be shown once.

What was measured:
[1] = system: aorta smooth muscle of rabbit; assay: Effects on aorta of rabbit (contraction of isolated aorta section caused by adrenalin); set-up: species or system New Zealand rabbit
Procedure: A New Zealand rabbit was beheaded and unconscious. After thoracotomy, its thoracic aorta was quickly taken out, and quickly placed in and flushed with a pre-cooled LOCK's solution (which comprised of 1000 ml water, 9 g NaCl, 0.35 g KCl, 0.35 g MgSO4.7H2O, 0.16 g KH2PO4, and 1 g NaHCO3) to remove bloodiness. The connective tissue outside the blood vessel was carefully cut off, and an aorta section of 2-3 mm wide at an angle of 45° relative to the vessel was taken for use in the following test.
The aorta section of 2 cm long was clamped at its both ends with frog heart clips, and put in a thermostatic perfusion tank of 38° C. with the lower end being fixed at the bottom of the tank and the top end being connected by a thread to a tensile transducer of a two-way electrophysiolograph. Oxygen was bubbled to the solution in the perfusion tank, and the contraction force of the aorta section was recorded after balancing it in the solution for 80 min. During which, the LOCK's solution was changed once per 20 min. After adding 1.2×10^−6 mg/ml adrenalin to the solution, the contraction curve of the aorta section was recorded.

[2] = system: blood pressure of SHR rat; assay: Reduction of blood pressure of anesthetized SHR rat; assay type: in vivo, spontaneously hypertensive rat (SHR); details: for Diastolic pressure / Systolic pressure: 10 mg/kg intravenous
Procedure: (§1) A spontaneously hypertensive rat (SHR) was anesthetized with 40 mg/ml pentobarbital, and fixed by its back on an experimental stand. The skin at its neck was cut open after removing hair, and thereafter the right common carotid artery was separated with its proximal end being clamped by a artery clamp and its axifugal end being ligated by a thread. A V-shape cut was made with scissors at the axifugal end, into which an arterial cannula filled with heparin physiological saline was inserted. The arterial cannula was connected with a blood pressure transducer, and then the blood pressure transducer was connected to a computer-controlled three-way physiological-pharmacological recorder. The right femoral vein of the rat was separated and intubated for the injection of a drug. When the blood pressure became stable (i.e., the blood pressure contraction curve became straight), the rat was administered by intravenous route.

[3] = system: blood pressure of cats; assay: Reduction of blood pressure of cat; assay type: in vivo; details: for Average Diastolic pressure / Average Systolic pressure / Diastolic pressure, Animal 1-4 individually / Systolic pressure, Animal 1-4 individually: cats, 5 mg/kg iv; for Diastolic pressure, Animal 1-4 individually / Systolic pressure, Animal 1-4 individually: 5 mg/kg
Procedure: as §1
Five cats of 2.5-3.2 kg were administered orally and intravenously respectively according to the method in Example 8, and then their systolic pressure and diastolic pressure were determined using normal cats non-administered as a control group.

[4] = SHR rat, 5 min after administration
[5] = SHR rat, 60 min after administration
[6] = SHR rat, 120 min after administration
[7] = SHR rat, 240 min after administration

## CC1(C)CNCC(C)(C)C1=O [Compound of formula II, 3,3,5,5-tetramethyl-4-piperidone]
[1]; concentration 1 × 10^−4 mg/ml
  Time of taking effect: 2 min
[1]; concentration 1 × 10^−4 mg/ml, 10 min, then adrenalin 1.2×10^−6 mg/ml, relative to original value
  Contraction force: 0.3
[1]; concentration range 5×10^−3-1×10^−4 mg/ml
  reduction of the contraction of aorta section caused by adrenalin: could obviously reduce the contraction of aorta section caused by adrenalin
[1]; concentration range 5×10^−4 to 10×10^−2 mg/ml
  inhibition of the contraction of aorta smooth muscle caused by adrenalin: inhibit the contraction of aorta smooth muscle of rabbit caused by adrenalin
[1]; sample 10 min, then adrenalin 1.2×10^−6 mg/ml, stated for the three samples together
  contraction force resumed by adrenalin, fraction of the original value: ½-⅓
[2]; 5-20 mg/kg, model of anesthetic rat
  effect of reducing blood pressure: very obvious effect of reducing blood pressure
[2]; [4]
  Diastolic pressure: 105 ± 11 mm/Hg
  Systolic pressure: 141 ± 9.2 mm/Hg
[2]; [5]
  Diastolic pressure: 84 ± 11 mm/Hg
  Systolic pressure: 120 ± 12 mm/Hg
[2]; [6]
  Diastolic pressure: 83 ± 21 mm/Hg
  Systolic pressure: 125 ± 14 mm/Hg
[2]; [7]
  Diastolic pressure: 110 ± 18 mm/Hg
  Systolic pressure: 163 ± 12 mm/Hg
[2]; SHR rat, before administration
  Diastolic pressure: 124 ± 12 mm/Hg
  Systolic pressure: 174 ± 11 mm/Hg
[2]; SHR rat, dosage range 10-200 mg/kg, intravenous
  reduction of systolic pressure and diastolic pressure: could obviously reduce the systolic pressure and diastolic pressure of SHR rat
[3]; 5-20 mg/kg, model of anesthetic cat
  effect of reducing blood pressure: very obvious effect of reducing blood pressure
[3]; 10 min after administration
  Average Diastolic pressure: 106 mmHg
  Average Systolic pressure: 135.5 mmHg
  Diastolic pressure, Animal 1-4 individually: 84 mmHg and 93 mmHg and 146 mmHg and 101 mmHg
  Systolic pressure, Animal 1-4 individually: 100 mmHg and 110 mmHg and 182 mmHg and 150 mmHg
[3]; 20 min after administration
  Average Diastolic pressure: 105.75 mmHg
  Average Systolic pressure: 139.75 mmHg
  Diastolic pressure, Animal 1-4 individually: 79 mmHg and 109 mmHg and 137 mmHg and 98 mmHg
  Systolic pressure, Animal 1-4 individually: 111 mmHg and 126 mmHg and 172 mmHg and 150 mmHg
[3]; 30 min after administration
  Average Diastolic pressure: 106.25 mmHg
  Average Systolic pressure: 141.25 mmHg
  Diastolic pressure, Animal 1-4 individually: 80 mmHg and 111 mmHg and 136 mmHg and 98 mmHg
  Systolic pressure, Animal 1-4 individually: 119 mmHg and 137 mmHg and 173 mmHg and 136 mmHg
[3]; 40 min after administration
  Average Diastolic pressure: 110.5 mmHg
  Average Systolic pressure: 144.5 mmHg
  Diastolic pressure, Animal 1-4 individually: 100 mmHg and 111 mmHg and 134 mmHg and 97 mmHg
  Systolic pressure, Animal 1-4 individually: 134 mmHg and 137 mmHg and 172 mmHg and 135 mmHg
[3]; 50 min after administration
  Average Diastolic pressure: 117 mmHg
  Average Systolic pressure: 152.25 mmHg
  Diastolic pressure, Animal 1-4 individually: 117 mmHg and 120 mmHg and 134 mmHg and 97 mmHg
  Systolic pressure, Animal 1-4 individually: 156 mmHg and 147 mmHg and 171 mmHg and 135 mmHg
[3]; 60 min after administration
  Average Diastolic pressure: 118.25 mmHg
  Average Systolic pressure: 158 mmHg
  Diastolic pressure, Animal 1-4 individually: 131 mmHg and 120 mmHg and 130 mmHg and 92 mmHg
  Systolic pressure, Animal 1-4 individually: 174 mmHg (2×) and 142 mmHg (2×)
[3]; 90 min after administration
  Average Diastolic pressure: 121.75 mmHg
  Average Systolic pressure: 164.5 mmHg
  Diastolic pressure, Animal 1-4 individually: 122 mmHg and 129 mmHg and 144 mmHg and 92 mmHg
  Systolic pressure, Animal 1-4 individually: 170 mmHg and 167 mmHg and 178 mmHg and 143 mmHg
[3]; 120 min after administration
  Average Diastolic pressure: 124 mmHg
  Average Systolic pressure: 174.5 mmHg
  Diastolic pressure, Animal 1-4 individually: 123 mmHg and 129 mmHg and 148 mmHg and 96 mmHg
  Systolic pressure, Animal 1-4 individually: 182 mmHg and 167 mmHg and 202 mmHg and 147 mmHg
[3]; 150 min after administration
  Average Diastolic pressure: 127.5 mmHg
  Average Systolic pressure: 177 mmHg
  Diastolic pressure, Animal 1-4 individually: 124 mmHg and 140 mmHg and 148 mmHg and 98 mmHg
  Systolic pressure, Animal 1-4 individually: 186 mmHg and 170 mmHg and 202 mmHg and 150 mmHg
[3]; 180 min after administration
  Average Diastolic pressure: 133.75 mmHg
  Average Systolic pressure: 185 mmHg
  Diastolic pressure, Animal 1-4 individually: 123 mmHg and 148 mmHg and 156 mmHg and 108 mmHg
